Among the data in article PMC2154353 (The Journal of General Physiology, 2007) are Ki values, retold here.

Experiment [1] addresses T1, MEC-4 homomeric channel (A713wt), coexpressed with MEC-2 (Caenorhabditis elegans, UniProt P24612, A713T).
T1 sequence (P24612 1-768 A713T): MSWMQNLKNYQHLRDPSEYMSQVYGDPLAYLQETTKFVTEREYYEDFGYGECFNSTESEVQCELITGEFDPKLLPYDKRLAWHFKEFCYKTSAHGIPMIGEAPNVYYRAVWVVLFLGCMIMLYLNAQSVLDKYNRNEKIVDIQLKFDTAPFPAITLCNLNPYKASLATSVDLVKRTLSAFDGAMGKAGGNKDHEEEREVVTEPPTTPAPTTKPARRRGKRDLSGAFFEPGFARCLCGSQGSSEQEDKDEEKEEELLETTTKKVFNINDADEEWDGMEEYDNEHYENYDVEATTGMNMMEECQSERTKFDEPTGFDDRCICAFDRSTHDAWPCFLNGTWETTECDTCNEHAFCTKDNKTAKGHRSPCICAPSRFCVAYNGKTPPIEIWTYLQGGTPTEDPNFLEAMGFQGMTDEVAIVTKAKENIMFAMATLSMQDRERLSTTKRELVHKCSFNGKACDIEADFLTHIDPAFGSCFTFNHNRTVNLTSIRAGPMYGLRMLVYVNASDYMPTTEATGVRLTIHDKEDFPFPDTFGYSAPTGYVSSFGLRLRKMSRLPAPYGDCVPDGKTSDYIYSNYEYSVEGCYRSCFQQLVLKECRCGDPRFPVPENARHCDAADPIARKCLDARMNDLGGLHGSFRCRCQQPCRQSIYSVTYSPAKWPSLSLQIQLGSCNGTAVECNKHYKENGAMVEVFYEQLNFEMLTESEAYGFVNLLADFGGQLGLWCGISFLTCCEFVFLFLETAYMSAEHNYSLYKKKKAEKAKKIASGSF
T1 sequence (Q27433 1-481 partner): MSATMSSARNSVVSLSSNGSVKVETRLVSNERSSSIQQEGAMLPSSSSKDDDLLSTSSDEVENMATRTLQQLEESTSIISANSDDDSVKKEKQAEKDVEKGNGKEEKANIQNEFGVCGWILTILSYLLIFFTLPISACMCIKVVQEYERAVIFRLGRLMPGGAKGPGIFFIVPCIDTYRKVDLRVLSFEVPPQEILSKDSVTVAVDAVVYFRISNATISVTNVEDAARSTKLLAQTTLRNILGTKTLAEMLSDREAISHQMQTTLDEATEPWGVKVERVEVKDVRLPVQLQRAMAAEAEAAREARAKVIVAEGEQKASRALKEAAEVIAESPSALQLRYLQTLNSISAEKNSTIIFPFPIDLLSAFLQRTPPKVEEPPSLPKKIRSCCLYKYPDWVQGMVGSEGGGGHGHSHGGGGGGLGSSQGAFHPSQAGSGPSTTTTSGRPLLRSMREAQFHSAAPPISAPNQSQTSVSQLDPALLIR
The experiment in a line: two-electrode voltage clamp, oocytes, dose-response of current block. Format: cell-based. (In general: Two-electrode voltage clamp is typically applied to oocytes expressing channels or transporters.)

Experiment [2] concerns the target T2, MEC-4 homomeric channel (A713wt), coexpressed with MEC-2 (Caenorhabditis elegans, UniProt P24612).
T2 sequence (P24612 1-768): T1 sequence (P24612 1-768 A713T)
T2 sequence (Q27433 1-481 partner): T1 sequence (Q27433 1-481 partner)
The description is as above. Format: cell-based.

Broadly, the Ki is a dissociation constant, usually derived from enzyme kinetics or from competition with a known ligand.

For the compound `N=C(N)c1ccccc1` [benzamidine], the Ki was found to be 196 ± 40 µM in experiment [1] and 108 ± 3 µM in experiment [2].

As to `NC(=NCc1ccccc1)NC(=O)c1nc(Cl)c(N)nc1N` [benzamil], the values for the inhibition constant (Ki) in experiment [1] and in experiment [2] were 0.83 ± 0.14 µM and 0.15 ± 0.01 µM, respectively.
